Data set [1] has as its system Mycobacterium tuberculosis. Description: Antimycobacterial activity against Mycobacterium tuberculosis clinical isolate assessed as growth inhibition after 28 days. Format: functional, organism-based.
Data set [2] deals with Mycobacterium tuberculosis. As to the kind of experiment: Antimycobacterial activity against Mycobacterium tuberculosis H37Rv […] assessed as confluent growth at 50 ug/ml after 28 days by Lowenstein-Jensen method. It counts as functional, organism-based.
For data set [3], the system named is Mycobacterium tuberculosis. As to the kind of experiment: Antimycobacterial activity against Mycobacterium tuberculosis H37Rv […] assessed as confluent growth at 200 ug/ml after 28 days by Lowenstein-Jensen method. Format: functional, organism-based.
Data set [4] relates to Mycobacterium tuberculosis. As to the kind of experiment: Antimycobacterial activity against Mycobacterium tuberculosis H37Rv […] assessed as bacterial colonies at 200 ug/ml after 28 days by Lowenstein-Jensen method. It counts as functional.
Data set [5] addresses Neuronal acetylcholine receptor; alpha4/beta2 (Homo sapiens) (UniProt P17787+P43681). As to the kind of experiment: Displacement of [3H]cytisine from human recombinant alpha4beta2 nACh receptor expressed in human SH-SY5Y cells at 1 X 10^-8 M to 1 X 10^-7 M. It counts as cell-based.
Data set [6] deals with Mycobacterium tuberculosis. Description: Antimycobacterial activity against Mycobacterium tuberculosis clinical isolate assessed as growth inhibition after 5 days by microplate Alamar blue assay. It counts as functional. Conditions: 120 h.
For data set [7], the system named is Mycobacterium tuberculosis. As to the kind of experiment: Antimycobacterial activity against Mycobacterium tuberculosis H37Rv […] assessed as growth inhibition at 40 ug/ml after 28 days by Lowenstein-Jensen method. It counts as functional, organism-based.
The subject of data set [8] is Mycobacterium tuberculosis. Description: Antimycobacterial activity against Mycobacterium tuberculosis H37Rv […] assessed as bacterial colonies at 50 ug/ml after 28 days by Lowenstein-Jensen method. Format: functional.
Data set [9] can be described thus: Cmax in Wistar rat at 5 mg/kg, po. It counts as ADME, organism-based. Conditions: in vivo. Also on record: dose 5 mg/kg, route oral.
The nature of data set [10]: Tmax in Wistar rat at 5 mg/kg, po. Format: ADME, organism-based. Conditions: in vivo.
The nature of data set [11]: Half life in Wistar rat at 5 mg/kg, po. Format: ADME, organism-based. Conditions: in vivo.
The next data set relates to Rattus norvegicus. Description: Volume of distribution in Wistar rat at 5 mg/kg, po. It counts as ADME, organism-based. Conditions: in vivo.
Data set [12] can be described thus: Cmax in Wistar rat at 5 mg/kg, iv. It counts as ADME, organism-based. Also on record: dose 5 mg/kg, route intravenous. As to conditions: in vivo.
Data set [13] can be described thus: Tmax in Wistar rat at 5 mg/kg, iv. As to conditions: in vivo. It counts as ADME, organism-based.
The nature of data set [14]: Half life in Wistar rat at 5 mg/kg, iv. Format: ADME, organism-based. As to conditions: in vivo.
Data set [15] can be described thus: Volume of distribution in Wistar rat at 5 mg/kg, iv. As to conditions: in vivo. Format: ADME, organism-based.
Data set [16] in a line: Acute toxicity in po dosed overnight fasted Wistar rat. Conditions: in vivo. Format: organism-based.
Data set [17] is described as follows: Toxicity in Wistar rat administered qd via oral gavage with repeated dose for 28 days. It counts as organism-based. Conditions: in vivo.
Data set [18] relates to Mycobacterium tuberculosis. As to the kind of experiment: Antimycobacterial activity against Mycobacterium tuberculosis H37Rv […] assessed as growth inhibition at 0.2 ug/ml after 28 days by Lowenstein-Jensen method. It counts as functional, organism-based.
The nature of data set [19]: Half life in po dosed Wistar rat plasma.

The inhibition is the percentage by which the read-out fell short of the control. As a reminder, the MIC is the lowest concentration found to suppress growth. One may read the Cmax as the maximum level reached in the sampled fluid or tissue. The Tmax is the time at which the peak concentration occurs. The term half-life denotes how long it takes for the measured level to halve. Read a low half-life as fast loss. A word on the LD50: it is the dose at which mortality reaches 50%.

Values after ≈ are worked out from the molar mass of the structure shown. Active and inactive are the calls of the source. No cut-off for these calls is given here.

As to `COc1ccccc1-c1cncc(C(=O)C2CCN(C)C2=O)c1` (stereo not given), the outcome in [1] was inactive. Also, the “growth inhibition (GI)” value in [2] and in data set [3] was “inactive” each time.

Turning to `CC(=O)c1cccc(-c2cncc(C(=O)C3CCN(C)C3=O)c2)c1` (stereo not given), the Activity in data set [4] was more than 100. Further, the outcome in data set [1] was inactive. In data set [2], the “growth inhibition (GI)” value is “inactive”.

As for `CN1CCC(C(=O)c2cncc(-c3ccc(Cl)cc3)c2)C1=O` (stereo not given), the outcome in [1] was inactive. For the same molecule, the “growth inhibition (GI)” value in data set [2] and in data set [3] was “inactive” throughout.

Turning to `CN1CCC(C(=O)c2cncc(-c3cccc(O)c3)c2)C1=O` (stereo not given), in [5], the inhibition entry is “inactive”. Besides, the outcome in data set [1] was inactive. Besides, the “growth inhibition (GI)” value in data set [2] and in [3] was “inactive” throughout.

With `CN1CCC(C(=O)c2cncc(-c3cccc(F)c3)c2)C1=O` (stereo not given), the outcome in data set [1] was inactive. In addition, the “growth inhibition (GI)” value in [2] and in [3] was “inactive” each time.

Regarding `COc1cccc(-c2cncc(C(=O)C3CCN(C)C3=O)c2)c1` (stereo not given), in data set [5], the inhibition result was “inactive”. Further, in [1], the result was inactive. The “growth inhibition (GI)” value in [2] and in [3] was “inactive” in each case.

As for `CN1CCC(C(=O)c2cncc(-c3ccc(Cl)c(Cl)c3)c2)C1=O` (stereo not given), the MIC in data set [6] came out at 0.179 µM (≈ 62.5 ng/mL).

Take `CN1CCC(C(=O)c2cncc(-c3cccc(Cl)c3Cl)c2)C1=O` (stereo not given): the MIC in data set [6] turned out to be 0.0093 µM (≈ 3.25 ng/mL).

With `CN1CCC(C(=O)c2cncc(-c3cccc([N+](=O)[O-])c3)c2)C1=O` (stereo not given), the Activity in data set [4] is more than 100. Also, the inhibition entry in data set [5] is “inactive”. Moreover, in data set [1], the outcome was inactive. Also, in data set [2], the “growth inhibition (GI)” value was “inactive”.

As for `CN1CCC(C(=O)c2cncc(-c3cccc(N)c3)c2)C1=O` (stereo not given), the result in data set [1] was inactive. In addition, the “growth inhibition (GI)” value in [2] and in data set [3] was “inactive” throughout.

For `CO[C@H]1/C=C/O[C@@]2(C)Oc3c(C)c(O)c4c(O)c(c(/C=N/N5CCN(C)CC5)c(O)c4c3C2=O)NC(=O)/C(C)=C\C=C\[C@H](C)[C@H](O)[C@@H](C)[C@@H](O)[C@@H](C)[C@H](OC(C)=O)[C@@H]1C`, the “growth inhibition (GI)” value in [7] is “Active”.

As to `CN1CCC(C(=O)c2cncc(-c3cc(Cl)ccc3Cl)c2)C1=O` (stereo not given), the MIC in data set [6] turned out to be 0.286 µM (≈ 100 ng/mL).

For `COc1ccc(-c2cncc(C(=O)C3CCN(C)C3=O)c2)cc1` (stereo not given), the Activity in data set [4] is given as more than 100. Also, the inhibition result in data set [5] is “inactive”. Besides, the outcome in data set [1] was inactive. Also, the “growth inhibition (GI)” value in [2] is “inactive”.

For `CC(=O)c1ccc(-c2cncc(C(=O)C3CCN(C)C3=O)c2)s1` (stereo not given), the inhibition entry in data set [5] was “inactive”. For the same molecule, the outcome in [1] was inactive. In addition, the “growth inhibition (GI)” value in data set [2] and in data set [3] was “inactive” each time.

On to `Cc1ccccc1-c1cncc(C(=O)C2CCN(C)C2=O)c1` (stereo not given), for which the result in data set [1] was inactive. For the same molecule, the “growth inhibition (GI)” value in data set [2] and in data set [3] was “inactive” in each case.

As for `CN1CCC(C(=O)c2cncc(-c3ccccc3Cl)c2)C1=O` (stereo not given), the Activity in [4] is listed as more than 100. Moreover, in data set [1], the outcome was inactive. The “growth inhibition (GI)” value in data set [2] is “inactive”.

`CN1CCC(C(=O)c2cncc(-c3ccc(F)cc3)c2)C1=O` (stereo not given): the inhibition result in [5] was “inactive”. The outcome in data set [1] was inactive. The “growth inhibition (GI)” value in data set [2] and in data set [3] was “inactive” in each case.

In the case of `CC(=O)Oc1ccc(-c2cncc(C(=O)C3CCN(C)C3=O)c2)cc1` (stereo not given), the Activity in data set [8] and in [4] was more than 100 in each case. Also, in data set [5], the inhibition result is “inactive”. For the same molecule, the outcome in [1] was inactive.

As to `CN1CCC(C(=O)c2cncc(-c3cccc4ccccc34)c2)C1=O` (stereo not given), the result in data set [1] was inactive. Further, the “growth inhibition (GI)” value in data set [2] and in data set [3] was “inactive” each time.

On to `CN1CCC(C(=O)c2cncc(-c3ccc(C=O)cc3)c2)C1=O` (stereo not given), for which, in data set [4], the Activity is reported as more than 100. Further, in data set [1], the result was inactive. Also, the “growth inhibition (GI)” value in data set [2] is “inactive”.

Consider `CN1CCC(C(=O)c2cncc(-c3ccccc3)c2)C1=O` (stereo not given), for which the inhibition in data set [5] was less than 10%. Moreover, in [1], the outcome was inactive. Moreover, the “growth inhibition (GI)” value in [2] and in data set [3] was “inactive” each time.

For `CN1CCC(C(=O)c2cncc(-c3cc(Cl)cc(Cl)c3)c2)C1=O` (stereo not given), the Activity in data set [8] and in data set [4] was more than 100 throughout. Besides, the MIC in [6] stood at 0.0286 µM (≈ 10 ng/mL). Also, the figures for the maximum concentration (Cmax) in data set [9] and in [12] were 2860 ng/mL and 3370 ng/mL, respectively. Further, the figures for the Tmax in data set [10] and in data set [13] were 1 h and 3 min, respectively. In addition, the half-life was more than 24 h in data set [11] and 24 h in [14]. The results for the Vd (with Rattus norvegicus; in data set [15]) were 27.36 L and 23.2 L, respectively. For the same molecule, in data set [16], the LD50 was more than 2000 mg/kg. The molecule further yielded an LD50 at 672 h in data set [17] of more than 2000 mg/kg. Moreover, in data set [5], the inhibition result is “inactive”. The result in data set [1] was inactive.

In the case of `NNC(=O)c1ccncc1` [ISONIAZID], the MIC in data set [6] is 0.00145 µM (≈ 0.199 ng/mL). Further, the “growth inhibition (GI)” value in [18] is “Active”.

With `CN1CCC(C(=O)c2cncc(-c3ccc4ccccc4c3)c2)C1=O` (stereo not given), the Activity in [4] is given as more than 100. In addition, the result in [1] was inactive. The “growth inhibition (GI)” value in data set [2] was “inactive”.

As for `CN1CCC(C(=O)c2cncc(-c3ccc(Cl)cc3Cl)c2)C1=O` (stereo not given), the MIC in data set [6] amounted to 0.00286 µM (≈ 0.999 ng/mL).

With `CCCCc1cncc(C(=O)C2CCN(C)C2=O)c1` (stereo not given), the inhibition entry in [5] was “inactive”. The result in data set [1] was inactive. Besides, the “growth inhibition (GI)” value in data set [2] and in [3] was “inactive” throughout.

For the molecule `Cc1ccc(-c2cncc(C(=O)C3CCN(C)C3=O)c2)cc1` (stereo not given), in data set [1], the outcome was inactive. In addition, the “growth inhibition (GI)” value in [2] and in data set [3] was “inactive” each time.

As for `CN1CCC(C(=O)c2cncc(C3CC3)c2)C1=O` (stereo not given), the inhibition result in data set [5] was “inactive”. In addition, in data set [1], the result was inactive. The “growth inhibition (GI)” value in [2] and in data set [3] was “inactive” in each case.

The molecule `CN1CCC[C@H]1c1cccnc1` [NICOTINE] gave a half-life in data set [19] of 2 h.

As to `CN1CCC(C(=O)c2cncc(-c3cccc(C=O)c3)c2)C1=O` (stereo not given), the Activity in data set [4] is reported as more than 100. Besides, the inhibition result in data set [5] is “inactive”. In addition, the outcome in data set [1] was inactive. The “growth inhibition (GI)” value in data set [2] and in data set [3] was “inactive” throughout.

`Cc1cccc(-c2cncc(C(=O)C3CCN(C)C3=O)c2)c1` (stereo not given): the Activity in [8] and in data set [4] was more than 100 in each case. For the same molecule, in data set [5], the inhibition was less than 10%. For the same molecule, the outcome in [1] was inactive.

The record behind these values is ChEMBL document CHEMBL3774391, “Novel nicotine analogues with potential anti-mycobacterial activity” (Bioorg Med Chem, 2016).
